Data taken from patent publication US11932636B2, “RAD51 inhibitors” (Cyteir Therapeutics, Inc., priority 2019, dated 2024).
pEC50: −log10 of the molar value.

Test system: Daudi cells (AID positive)
Assay: Compound primary screening: cell death in AID positive Daudi cells (Cell-Titer Glo, Day 7)
Format: cell-based
Settings: Homo sapiens, 168 h; Daudi cells, AID positive; cell death on Day 7, Cell-Titer Glo; read-out: Cellular activity in AID + (Daudi)
Method: Example 149. Compound Primary Screening
AID expressing cells are dependent upon RAD51 for survival; inhibiting RAD51 in AID positive cells results in a cytotoxic effect.
A 96 well u-bottom plate was prepared by writing the experiment number, plate number, date and initials in the top right corner of the plate lid. With a sterile 300 ml reservoir, and 25 ml serological pipette, evaporation buffer media was pipetted into reservoir in 25 ml increments. Using the liquid handler, 150 ul of evaporation buffer media was pipetted from reservoir into rows A and H, and Columns 1 and 12 of the 96 well u-bottom plate. Cell cultures were counted to obtain the density of cells per ml, and the culture viability. The cell density information was used to obtain 1,000,000 cells from culture using a 5 mL serological pipette into an epi tube. The cell density information from the culture was used to calculate the number of cells and volume of media needed for the assay to seed 1250 cells in 130 ul of media per available culture well in the 96 well u-bottom plate. Rows B through F were used for cells (50 wells in total), with row G left for an empty media control. The calculation was overestimated by 10 mL to account for the dead volume in the 300 ml reservoir. Once the media volume was calculated, the appropriate volume of media was pipetted in 25 mL increments into the 250 mL bottle using a 25 mL serological pipette. The 250 ml bottle was capped tightly, and placed into a 37° C. water bath for 2 minutes. While the culture media was warming, 10 mL of fresh media was pipetted from the 500 mL culture media bottle into a sterile 25 mL reservoir. Using the Eppendorf multichannel pipette, 130 ul of media was pipetted from the 25 mL reservoir into row G of the 96 well u-bottom plate. Once the 250 mL bottle of media was warmed, the volume of culture needed was pipetted into the bottle, and mixed gently with a 25 mL serological pipette as to not create bubbles, and then the contents of the bottle were pipetted into a new 300 mL reservoir. Using the liquid handler, 130 ul of culture was pipetted from the 300 mL reservoir into rows B through F of the 96 well u-bottom plate. Once the culture was added, the plate was placed into a 37° C. incubator until the compound master plate was prepared for use.
Two 96 well u-bottom plates were prepared by writing the master plate name in the upper right corner of the plate lid. Labeling one DMSO master and the other Media Master. The compounds of interest were obtained from the laboratory freezer, and placed into a 25 well storage box with a lid, and set the box aside. The compounds were vortexed after thawing but before use. Using an automatic multichannel pipette, 20 ul of 100% DMSO was pipetted into wells B3-B11 through G3-G11 of the DMSO master plate. For each compound on the master plate, 50 ul of the compound were pipetted in the appropriate well of row 2 (reference plate map to determine appropriate well). A serial dilution was prepared beginning by aspirating 20 ul from row 2 and mixing with row 3, repeating until row 11 was reached. Using the liquid handler, 194 ul of Daudi media was dispensed into wells B2-B11 through G2-G11 of the Media master plate. Using the liquid handler, 6 ul from the DMSO master plate was aspirated and dispensed into the media master plate, mixing 100 ul twice.
Compounds from master plate were then added to the culture plate. The culture plates were removed from the incubator, and set inside the biosafety cabinet. Using a liquid handler, 20 ul from wells B2 to B11 through G2 to G11 of master plate were aspirated, and dispensed into wells B2 to B11 through G2 to G11 of culture plate. This set was continued with each culture plate. Once the culture plates acquired their 20 ul of compound dilutions, they were placed back into the incubator, until their reads on Day 7 of experiment.
Cell death was measured on Day 7 of the experiment using Cell-Titer Glo and a Promega Plate reader.

Structure (SMILES)	pEC50
CC(C)OC(=O)N[C@H]1CC[C@H](c2ncc(-c3ccc(O)cc3S(=O)(=O)NC(C)(C)C)s2)CC1 [Compound 23, isopropyl (trans-4-(5-(2-(N-(tert-butyl)sulfamoyl)-4-hydroxyphenyl)thiazol-2-yl)cyclohexyl)carbamate]	6.00 to 7.00
CC(C)OC(=O)N[C@H]1CC[C@H](c2ncc(-c3ccc(O)cc3S(N)(=O)=O)s2)CC1 [Compound 24, isopropyl (trans-4-(5-(4-hydroxy-2-sulfamoylphenyl)thiazol-2-yl)cyclohexyl)carbamate]	6.00 to 7.00
CC(C)OC(=O)N[C@H]1CC[C@H](c2ncc(-c3ccc(OCCNC(=O)OC(C)(C)C)cc3S(=O)(=O)NC(C)(C)C)s2)CC1 [Compound 25, isopropyl N-[trans-4-[5-[4-[2-(tert-butoxycarbonylamino)ethoxy]-2-(tert-butylsulfamoyl)phenyl]thiazol-2-yl]cyclohexyl]carbamate]	5.00 to 6.00
CC(C)OC(=O)N[C@H]1CC[C@H](c2ncc(-c3ccc(OCCN)cc3S(=O)(=O)NC(C)(C)C)s2)CC1 [Compound 26, isopropyl (trans-4-(5-(4-(2-aminoethoxy)-2-(N-(tert-butyl)sulfamoyl)phenyl)thiazol-2-yl)cyclohexyl)carbamate]	5.00 to 6.00
CC(C)OC(=O)N[C@H]1CC[C@H](c2ncc(-c3ccc(OC(C)C)cc3S(=O)(=O)NC(C)(C)C)s2)CC1 [Compound 27, isopropyl (trans-4-(5-(2-(N-(tert-butyl)sulfamoyl)-4-isopropoxyphenyl)thiazol-2-yl)cyclohexyl)carbamate]	5.00 to 6.00
COc1ccc(-c2cnc([C@H]3CC[C@H](NC(=O)OC(C)C)CC3)s2)c(S(=O)(=O)NC(C)(C)C)c1 [Compound 28, isopropyl (trans-4-(5-(2-(N-(tert-butyl)sulfamoyl)-4-methoxyphenyl)thiazol-2-yl)cyclohexyl)carbamate]	< 5.00
CC(C)OC(=O)N[C@H]1CC[C@H](c2ncc(-c3ccc(OCCN(C)C(=O)OC(C)(C)C)cc3S(=O)(=O)NC(C)(C)C)s2)CC1 [Compound 29, tert-butyl (2-(3-(N-(tert-butyl)sulfamoyl)-4-(2-(trans-4-((isopropoxycarbonyl)amino)cyclohexyl)thiazol-5-yl)phenoxy)ethyl)(methyl)carbamate]	5.00 to 6.00
CC(C)OC(=O)N[C@H]1CC[C@H](c2ncc(-c3ccc(OCCN(C)C)cc3S(=O)(=O)NC(C)(C)C)s2)CC1 [Compound 30, isopropyl (trans-4-(5-(2-(N-(tert-butyl)sulfamoyl)-4-(2-(dimethylamino)ethoxy)phenyl)thiazol-2-yl)cyclohexyl)carbamate]	< 5.00
COCCOc1ccc(-c2cnc([C@H]3CC[C@H](NC(=O)OC(C)C)CC3)s2)c(S(=O)(=O)NC(C)(C)C)c1 [Compound 31, isopropyl (trans-4-(5-(2-(N-(tert-butyl)sulfamoyl)-4-(2-methoxyethoxy)phenyl)thiazol-2-yl)cyclohexyl)carbamate]	5.00 to 6.00
CNCCOc1ccc(-c2cnc([C@H]3CC[C@H](NC(=O)OC(C)C)CC3)s2)c(S(=O)(=O)NC(C)(C)C)c1 [Compound 32, isopropyl (trans-4-(5-(2-(N-(tert-butyl)sulfamoyl)-4-(2-(methylamino)ethoxy)phenyl)thiazol-2-yl)cyclohexyl)carbamate]	< 5.00
CC(C)COCc1ccc(-c2cnc([C@H]3CC[C@H](NC(=O)OC(C)C)CC3)s2)c(S(=O)(=O)NC(C)(C)C)c1 [Compound 33, isopropyl (trans-4-(5-(2-(N-(tert-butyl)sulfamoyl)-4-(isobutoxymethyl)phenyl)thiazol-2-yl)cyclohexyl)carbamate]	6.00 to 7.00
CC(C)COCc1ccc(-c2cnc([C@H]3CC[C@H](NC(=O)OC4COC4)CC3)s2)c(S(=O)(=O)NC(C)(C)C)c1 [Compound 34, oxetan-3-yl trans-N-[4-[5-[2-(tert-butylsulfamoyl)-4-(isobutoxymethyl)phenyl]thiazol-2-yl]cyclohexyl]carbamate]	5.00 to 6.00
CCNS(=O)(=O)c1cc(C#N)ccc1-c1cnc([C@H]2CC[C@H](NC(=O)OC(C)C)CC2)s1 [Compound 36, isopropyl trans-N-[4-[5-[4-cyano-2-(ethylsulfamoyl)phenyl]thiazol-2-yl]cyclohexyl]carbamate]	5.00 to 6.00
CC(C)OC(=O)N[C@H]1CC[C@H](c2ncc(-c3ccc(Nc4ncc[nH]4)cc3S(=O)(=O)NC(C)(C)C)s2)CC1 [Compound 38, isopropyl trans-N-[4-[5-[2-(tert-butylsulfamoyl)-4-(1H-imidazol-2-ylamino)phenyl]thiazol-2-yl]cyclohexyl]carbamate]	> 7.00
CC(C)NC(=O)Cc1ccc(-c2cnc([C@H]3CC[C@H](NC(=O)OC(C)C)CC3)s2)c(S(=O)(=O)NC(C)(C)C)c1 [Compound 40, isopropyl trans-N-[4-[5-[2-(tert-butylsulfamoyl)-4-[2-(isopropylamino)-2-oxo-ethyl]phenyl]thiazol-2-yl]cyclohexyl]carbamate]	> 7.00
CC(C)NC(=O)Cc1ccc(-c2cnc([C@H]3CC[C@H](NC(=O)OC4COC4)CC3)s2)c(S(=O)(=O)NC(C)(C)C)c1 [Compound 41, oxetan-3-yl (trans-4-(5-(2-(N-(tert-butyl)sulfamoyl)-4-(2-(isopropylamino)-2-oxoethyl)phenyl)thiazol-2-yl)cyclohexyl)carbamate]	6.00 to 7.00
CC(C)OC(=O)N[C@H]1CC[C@H](c2ncc(-c3ccc(Nc4ncco4)cc3S(=O)(=O)NC(C)(C)C)s2)CC1 [Compound 42, isopropyl (trans-4-(5-(2-(N-(tert-butyl)sulfamoyl)-4-(oxazol-2-ylamino)phenyl)thiazol-2-yl)cyclohexyl)carbamate]	> 7.00
CC(C)OC(=O)N[C@H]1CC[C@H](c2ncc(-c3ccccc3S(N)(=O)=O)s2)CC1 [Compound 44, isopropyl trans-N-[4-[5-(2-sulfamoylphenyl)thiazol-2-yl]cyclohexyl]carbamate]	5.00 to 6.00
CCNS(=O)(=O)c1ccccc1-c1cnc([C@H]2CC[C@H](NC(=O)OC(C)C)CC2)s1 [Compound 45, isopropyl (trans-4-(5-(2-(N-ethylsulfamoyl)phenyl)thiazol-2-yl)cyclohexyl)carbamate]	5.00 to 6.00
CC(C)OC(=O)N[C@H]1CC[C@H](c2ncc(-c3ccccc3S(=O)(=O)NC(C)(C)C)s2)CC1 [Compound 46, isopropyl (trans-4-(5-(2-(N-(tert-butyl)sulfamoyl)phenyl)thiazol-2-yl)cyclohexyl)carbamate]	5.00 to 6.00
CCNS(=O)(=O)c1cc(C(=O)O)ccc1-c1cnc([C@H]2CC[C@H](NC(=O)OC(C)C)CC2)s1 [Compound 48, trans-3-(ethylsulfamoyl)-4-[2-[4-(isopropyloxycarbonyl-amino)cyclohexyl]thiazol-5-yl]benzoic acid]	5.00 to 6.00
CCNS(=O)(=O)c1cc(C(N)=O)ccc1-c1cnc([C@H]2CC[C@H](NC(=O)OC(C)C)CC2)s1 [Compound 49, isopropyl trans-N-[4-[5-[4-carbamoyl-2-(ethylsulfamoyl)phenyl]thiazol-2-yl]cyclohexyl]carbamate]	6.00 to 7.00
CCNS(=O)(=O)c1cc(C(=O)NC(C)C)ccc1-c1cnc([C@H]2CC[C@H](NC(=O)OC(C)C)CC2)s1 [Compound 50, isopropyl (trans-4-(5-(2-(N-ethylsulfamoyl)-4-(isopropylcarbamoyl)phenyl)thiazol-2-yl)cyclohexyl)carbamate]	6.00 to 7.00
CCNS(=O)(=O)c1cc(COCC(C)C)ccc1-c1cnc([C@H]2CC[C@H](NC(=O)OC(C)C)CC2)s1 [Compound 51, isopropyl (trans-4-(5-(2-(N-ethylsulfamoyl)-4-(isobutoxymethyl)phenyl)thiazol-2-yl)cyclohexyl)carbamate]	6.00 to 7.00
